Source: patent US9616006B2, “Methods and compositions for treating dermatological diseases and conditions” (priority 2007, dated 2017)

What was measured:
PGE2 [1] = assay: TPA-induced PGE2 production in keratinocytes (ELISA); assay type: cell-based, human; conditions: Homo sapiens, Keratinocyte, read-out: Percent Inhibition of PGE2
PGE2 [2] = assay: UV-induced PGE2 production in keratinocytes (ELISA); assay type: cell-based, human; conditions: Homo sapiens, Keratinocyte; Keratinocytes (UV); 100 uM; read-out: Percent Inhibition of PGE2
Protocol: (§1) In one study, various concentrations of DHE were added to culture medium and these media were placed on human fibroblast cell cultures (results shown in FIG. 1). Cells were either not induced or induced with UVB radiation to stimulate cytokine/PGE-2 production. At 24 hours after treatment, the cell culture medium was removed and assayed by ELISA methods for the expression of PGE-2, various cytokines and chemokines.
(§2) When similar experiments were carried out with human keratinocytes, DHE was again found to markedly suppress the UVR induction of PGE-2, with a concentration of 50 uM inhibiting the production of PGE-2 by over 60% (results shown in FIG. 2). […] Further, since PGE-2 is known to be a principal factor in the development of actinic keratosis and skin cancer, DHE can also be used in treating these conditions.
(§3) DHE and IE both have inhibitory effects on production of the inflammatory mediators in keratinocytes.

IL-6 [3] = assay: UV-induced IL-6 production in keratinocytes (ELISA); assay type: cell-based, human; conditions: Homo sapiens, Keratinocyte, read-out: Percent Inhibition of IL-6
Protocol: as §1, §2, §3

PGE-2 [4] = assay: IL-1-induced PGE-2 production in fibroblasts (ELISA); assay type: cell-based, human; conditions: Homo sapiens, Fibroblast, Fibroblasts (IL-1), read-out: Percent Inhibition of PGE-2
Protocol: as §1, with “Cells were either not induced or induced with UVB radiation to stimulate cytokine/PGE-2 production.” left out
(§4) DHE and IE both have inhibitory effects on the production of the inflammatory mediators in fibroblasts.

IL-6 [5] = assay: IL-1-induced IL-6 production in fibroblasts (ELISA); assay type: cell-based, human; conditions: Homo sapiens, Fibroblast, Fibroblasts (IL-1), read-out: Percent Inhibition of IL-6
Protocol: as §1, with “Cells were either not induced or induced with UVB radiation to stimulate cytokine/PGE-2 production.” left out
as §4

PGE-2 [6] = assay: UV-induced PGE-2 production in fibroblasts (ELISA); assay type: cell-based, human; conditions: Homo sapiens, Fibroblast; Fibroblasts (UV); 100 uM; read-out: Percent Inhibition of PGE-2
Protocol: as §1
As is shown in FIG. 1, UV radiation (UVR) treatment of fibroblasts results in a 6 fold increase in PGE-2.
as §4

IL-6 [7] = assay: UV-induced IL-6 production in fibroblasts (ELISA); assay type: cell-based, human; conditions: Homo sapiens, Fibroblast, read-out: Percent Inhibition of IL-6
Protocol: as §1, §4

MCP-1 = assay: LPS-induced MCP-1 production in monocytes; assay type: cell-based; conditions: Monocyte; Monocytes (LPS); 100 uM; read-out: Percent Inhibition of MCP-1
Text: (§5) DHE and IE both have inhibitory effects on the production of the inflammatory mediators in monocytes.

IL-12 [8] = assay: LPS-induced IL-12 production in monocytes; assay type: cell-based; conditions: Monocyte, read-out: Percent Inhibition of IL-12
Text: as §5

IL-12 [9] = assay: TNF-α-induced IL-12 production in monocytes; assay type: cell-based; conditions: Monocyte, read-out: Percent Inhibition of IL-12
Text: as §5

[10] = test system: HAS-2 (Hyaluronic acid synthase-2); assay: HAS-2 mRNA in fibroblasts by RT-PCR; assay type: cell-based, human; conditions: 72 hours
Text: The presently claimed and disclosed inventive concept(s) further contemplates use of various DHE, IE and EV compositions and salts, esters, ethers, and derivatives thereof to mitigate the effects of aging on the skin. For all aging studies, normal human fibroblast cell cultures were used. These cells normally produce collagen, elastin and hyaluronic acid. As the skin ages, the fibroblasts in the dermis lose their ability to produce these three key components of skin, and the skin consequently loses elasticity, thickness and smooth texture. In addition, as fibroblasts age, they increase the expression of certain enzymes that destroy collagen and elastin. There are about 13 of these enzymes, collectively referred to as MMPs (matrix metalloproteinases). One of the principal MMPs, MMP-1, is responsible for collagen degradation. For experiments herein to determine the effects of DHE, IE and EV on collagen, elastin and hyaluronic acid, fibroblasts were treated with the compounds for 72 hours, mRNA was then isolated, and analyzed for abundance by RT-PCR (Reverse transcriptase-Polymerase Chain Reaction).
DHE, IE and EV, are also shown herein to stimulate mRNA for HAS-2. HAS-2 (Hyaluronic acid synthase-2) is the enzyme that manufactures hyaluronic acid (HA) in the skin. HA is a glycosaminoglycan important for maintaining moisture and suppleness in the skin. […] As the skin ages, the production of HA decreases and this causes the skin to sag and become thin.

tyrosinase [11] = assay: Melanin synthesis in vitro from L-DOPA catalyzed by tyrosinase (test tube); assay type: biochemical
Protocol: Two ml of a sodium phosphate buffer, pH 6.8 containing 0.2% L-DOPA (dihydroxyphenylalanine—a tyrosinase substrate) were placed in each of two test tubes. To one test tube was added 20 microliters of ethanol and to the other tube was added 20 microliters of a 1M stock of IE made up in ethanol (labeled TH-212). To start melanin synthesis from the L-DOPA substrate, 20 microliters of a tyrosinase preparation (0.5 mg/ml) was added to both tubes, the tubes were mixed and left at room temperature. The photograph in FIG. 13 was taken 2 hours after the start of the reaction.

tyrosinase [12] = assay: DOPA oxidase assay of cell extracts from treated human melanocytes; assay type: cell-based; conditions: extracts of human melanocytes treated for 9 days
Protocol: Cell lysates were prepared from human melanocytes. The amount of tyrosinase in these cell lysates was determined by DOPA oxidase assay.
(§6) FIGS. 14-17 show the skin-lightening effects of topically-applied formulations of isoeugenol and its ester isoeugenol acetate (a.k.a. isoeugenyl acetate) in the treatment of hyperpigmented areas in the skin, wherein a reduction of melanin pigment in the skin is caused by the topical application of the formulations. In addition to blocking a post-tyrosinase step in melanin synthesis, IE and IE acetate can inhibit the expression of the tyrosinase protein in human melanocytes. […] If the cell extracts contain tyrosinase when an aliquot of extract is placed in a tube containing L-DOPA (a tyrosinase substrate) in buffer, the enzyme will convert the DOPA to melanin. The melanin will appear brownish-black in the assay tube. If IE or IE-acetate has inhibited tyrosinase synthesis in melanocytes, then the extracts from these cells will contain no enzyme and will not be able to produce melanin from DOPA in the assay tube. […] In this assay, cell extracts from human melanocytes either left untreated or treated with 200 micromolar of either IE or isoeugenol acetate for 9 days are run on SDS polyacrylamide electrophoresis gels to separate tyrosinase from other proteins. The tyrosinase in the gel is then blotted to a membrane and the tyrosinase detected by staining with a specific anti-tyrosinase antibody. The antibody-bound tyrosinase is then visualized by chemiluminescence.

tyrosinase [13] = assay: Western immunoblot of tyrosinase abundance in human melanocyte extracts; assay type: cell-based
Text: as §6

`CC=Cc1ccc(O)c(OC)c1` [IE, isoeugenol] gave an inhibition at 100 µM (PGE2 [1]) of 82%, an inhibition at 100 µM (PGE2 [2]) of 76% and an inhibition at 100 µM (IL-6 [3]) of 93%. It also gave an inhibition at 100 µM (PGE-2 [4]) of 81%, an inhibition at 100 µM (IL-6 [5]) of 53% and an inhibition at 100 µM (PGE-2 [6]) of 77%. It also gave an inhibition at 100 µM (IL-6 [7]) of 39%, an inhibition at 100 µM (MCP-1) of 87% and an inhibition at 100 µM (IL-12 [8]) of 80%. For the same molecule, the inhibition at 100 µM (IL-12 [9]) was 100%, the “mRNA for HAS-2” value [10] was “stimulate” and the melanin synthesis (tyrosinase [11]; 0.2% L-DOPA, pH 6.8, 20 microliters of 1M stock in 2 ml, tyrosinase, 2 hours, room temperature) was “almost completely blocked”. The “darkening of test tubes (melanin production)” value (tyrosinase [11]; tubes containing DOPA, IE and tyrosinase, even after 2 weeks) was “fail to darken”, the “tyrosinase activity / melanin made from L-DOPA by cell extracts” value (tyrosinase [12]) was “very little melanin was made” and the “tyrosinase activity / melanin made from L-DOPA by cell extracts” value (tyrosinase [12]; listed as TH-212) was “absence of tyrosinase activity”. For the same molecule, the “tyrosinase abundance (relative densitometric units)” value (tyrosinase [13]; human melanocyte extracts, 200 μM, 9 days, control approximately 7.25 RDU) was “about 3 RDU” and the “tyrosinase present (western immunoblot)” value (tyrosinase [13]; human melanocytes treated with 200 micromolar for 9 days) was “almost no detectable tyrosinase”.
